The target of assay [1] is T1, Gastric inhibitory polypeptide receptor (Homo sapiens, UniProt P48546).
T1 sequence (P48546 whole entry): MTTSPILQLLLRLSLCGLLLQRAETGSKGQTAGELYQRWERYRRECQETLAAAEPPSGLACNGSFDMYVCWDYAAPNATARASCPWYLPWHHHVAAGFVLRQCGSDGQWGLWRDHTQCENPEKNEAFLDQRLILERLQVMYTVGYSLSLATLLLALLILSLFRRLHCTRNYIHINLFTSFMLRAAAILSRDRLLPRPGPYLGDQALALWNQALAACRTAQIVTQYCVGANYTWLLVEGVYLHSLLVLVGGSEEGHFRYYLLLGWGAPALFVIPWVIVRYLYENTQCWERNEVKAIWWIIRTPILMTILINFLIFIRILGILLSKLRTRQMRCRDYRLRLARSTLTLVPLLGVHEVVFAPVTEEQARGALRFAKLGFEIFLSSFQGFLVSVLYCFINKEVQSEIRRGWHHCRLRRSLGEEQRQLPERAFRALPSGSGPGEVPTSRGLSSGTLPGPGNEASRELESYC

The next assay has as its target T2, Androgen receptor (Rattus norvegicus, UniProt P15207).
T2 sequence (P15207 whole entry): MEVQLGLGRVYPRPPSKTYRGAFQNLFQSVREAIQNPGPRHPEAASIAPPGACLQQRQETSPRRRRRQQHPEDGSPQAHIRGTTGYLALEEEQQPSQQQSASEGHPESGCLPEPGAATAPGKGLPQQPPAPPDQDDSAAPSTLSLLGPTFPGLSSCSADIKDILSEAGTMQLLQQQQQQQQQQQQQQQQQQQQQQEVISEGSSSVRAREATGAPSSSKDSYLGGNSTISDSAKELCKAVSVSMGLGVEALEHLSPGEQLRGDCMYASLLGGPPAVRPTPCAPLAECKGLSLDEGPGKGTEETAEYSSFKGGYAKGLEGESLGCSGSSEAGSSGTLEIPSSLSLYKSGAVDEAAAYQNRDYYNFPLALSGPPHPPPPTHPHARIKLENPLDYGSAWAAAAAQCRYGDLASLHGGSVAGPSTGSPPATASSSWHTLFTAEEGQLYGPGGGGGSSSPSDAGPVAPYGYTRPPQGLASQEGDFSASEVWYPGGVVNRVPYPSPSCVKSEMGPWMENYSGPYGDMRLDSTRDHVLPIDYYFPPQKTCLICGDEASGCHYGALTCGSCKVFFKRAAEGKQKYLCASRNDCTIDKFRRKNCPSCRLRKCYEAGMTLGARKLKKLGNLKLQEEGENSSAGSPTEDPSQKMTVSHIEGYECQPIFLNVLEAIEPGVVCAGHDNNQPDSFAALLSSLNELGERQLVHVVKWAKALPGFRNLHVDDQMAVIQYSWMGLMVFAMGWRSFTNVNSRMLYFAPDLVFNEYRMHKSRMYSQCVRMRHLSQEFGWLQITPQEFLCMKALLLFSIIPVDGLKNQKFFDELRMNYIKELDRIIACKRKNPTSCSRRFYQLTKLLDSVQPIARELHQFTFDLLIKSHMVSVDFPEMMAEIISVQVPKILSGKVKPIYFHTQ
Type of assay: functional.

In assay [2] the target is Sodium channel protein type 5 subunit alpha (Homo sapiens, UniProt Q14524). Type of assay: functional, cell-based.
Sequence of Sodium channel protein type 5 subunit alpha (Q14524 whole entry): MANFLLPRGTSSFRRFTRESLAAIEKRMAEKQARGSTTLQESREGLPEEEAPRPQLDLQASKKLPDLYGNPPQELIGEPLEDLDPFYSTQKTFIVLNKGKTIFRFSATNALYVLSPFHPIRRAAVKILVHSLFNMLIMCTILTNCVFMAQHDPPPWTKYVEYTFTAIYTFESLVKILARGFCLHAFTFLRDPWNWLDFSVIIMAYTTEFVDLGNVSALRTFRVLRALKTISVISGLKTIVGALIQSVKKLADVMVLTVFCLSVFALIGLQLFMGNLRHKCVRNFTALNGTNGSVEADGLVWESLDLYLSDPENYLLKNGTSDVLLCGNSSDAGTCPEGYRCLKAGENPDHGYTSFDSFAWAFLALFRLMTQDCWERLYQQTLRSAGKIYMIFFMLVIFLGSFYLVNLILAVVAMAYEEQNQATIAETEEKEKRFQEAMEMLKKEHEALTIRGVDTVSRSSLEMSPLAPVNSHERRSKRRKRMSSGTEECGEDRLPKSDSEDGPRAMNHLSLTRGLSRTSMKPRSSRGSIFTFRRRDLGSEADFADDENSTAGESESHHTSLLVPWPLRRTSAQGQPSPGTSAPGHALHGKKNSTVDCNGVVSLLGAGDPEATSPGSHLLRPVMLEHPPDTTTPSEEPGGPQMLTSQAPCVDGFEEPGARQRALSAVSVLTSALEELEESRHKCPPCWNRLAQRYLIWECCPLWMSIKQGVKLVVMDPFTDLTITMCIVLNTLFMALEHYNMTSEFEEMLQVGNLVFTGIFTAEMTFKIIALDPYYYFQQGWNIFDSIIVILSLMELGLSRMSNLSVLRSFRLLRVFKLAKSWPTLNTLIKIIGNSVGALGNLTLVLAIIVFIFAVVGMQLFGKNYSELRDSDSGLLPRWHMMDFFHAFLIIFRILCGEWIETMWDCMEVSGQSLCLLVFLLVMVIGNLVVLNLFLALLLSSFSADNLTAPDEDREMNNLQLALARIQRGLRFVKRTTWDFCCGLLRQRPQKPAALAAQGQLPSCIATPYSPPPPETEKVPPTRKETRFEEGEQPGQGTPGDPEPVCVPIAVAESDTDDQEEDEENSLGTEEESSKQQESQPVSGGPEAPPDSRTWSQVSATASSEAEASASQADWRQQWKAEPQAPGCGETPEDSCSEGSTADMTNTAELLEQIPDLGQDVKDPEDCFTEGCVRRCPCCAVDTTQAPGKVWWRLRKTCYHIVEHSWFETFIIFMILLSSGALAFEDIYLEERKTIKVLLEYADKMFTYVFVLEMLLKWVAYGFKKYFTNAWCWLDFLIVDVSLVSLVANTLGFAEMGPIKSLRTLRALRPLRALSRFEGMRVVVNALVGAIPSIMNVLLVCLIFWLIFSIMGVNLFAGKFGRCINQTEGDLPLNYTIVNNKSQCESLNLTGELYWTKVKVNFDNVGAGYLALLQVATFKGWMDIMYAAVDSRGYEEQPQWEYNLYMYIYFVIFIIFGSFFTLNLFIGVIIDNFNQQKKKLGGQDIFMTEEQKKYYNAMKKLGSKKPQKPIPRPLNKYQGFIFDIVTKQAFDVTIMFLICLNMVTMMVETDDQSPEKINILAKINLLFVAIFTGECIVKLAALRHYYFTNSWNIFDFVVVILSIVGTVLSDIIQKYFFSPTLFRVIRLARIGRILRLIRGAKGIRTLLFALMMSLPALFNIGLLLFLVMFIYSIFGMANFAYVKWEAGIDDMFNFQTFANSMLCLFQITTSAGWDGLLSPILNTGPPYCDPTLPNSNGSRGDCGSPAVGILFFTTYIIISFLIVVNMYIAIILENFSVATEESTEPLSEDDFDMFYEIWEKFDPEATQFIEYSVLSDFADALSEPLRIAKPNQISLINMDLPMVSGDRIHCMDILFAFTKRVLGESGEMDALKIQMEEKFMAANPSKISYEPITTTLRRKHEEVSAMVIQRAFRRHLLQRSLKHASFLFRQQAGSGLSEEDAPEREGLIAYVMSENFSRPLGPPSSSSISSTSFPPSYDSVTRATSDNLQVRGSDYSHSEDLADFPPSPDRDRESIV
In assay [3] the target is 5-hydroxytryptamine receptor 2A (Homo sapiens, UniProt P28223).
Sequence of 5-hydroxytryptamine receptor 2A (P28223 whole entry): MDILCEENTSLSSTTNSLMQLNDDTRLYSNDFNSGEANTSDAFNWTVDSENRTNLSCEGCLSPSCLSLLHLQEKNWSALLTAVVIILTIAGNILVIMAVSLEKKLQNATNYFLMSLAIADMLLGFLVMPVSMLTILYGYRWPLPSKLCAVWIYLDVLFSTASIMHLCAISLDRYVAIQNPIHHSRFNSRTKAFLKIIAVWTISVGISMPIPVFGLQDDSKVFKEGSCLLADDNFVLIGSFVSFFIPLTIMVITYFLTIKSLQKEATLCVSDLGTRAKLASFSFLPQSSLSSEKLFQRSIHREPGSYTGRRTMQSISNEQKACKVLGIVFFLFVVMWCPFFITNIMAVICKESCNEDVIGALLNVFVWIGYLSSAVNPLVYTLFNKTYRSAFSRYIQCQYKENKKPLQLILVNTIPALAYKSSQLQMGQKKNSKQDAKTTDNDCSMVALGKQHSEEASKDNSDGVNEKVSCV
For a further assay, the target named is Substance-P receptor (Homo sapiens, UniProt P25103).
Sequence of Substance-P receptor (P25103 whole entry): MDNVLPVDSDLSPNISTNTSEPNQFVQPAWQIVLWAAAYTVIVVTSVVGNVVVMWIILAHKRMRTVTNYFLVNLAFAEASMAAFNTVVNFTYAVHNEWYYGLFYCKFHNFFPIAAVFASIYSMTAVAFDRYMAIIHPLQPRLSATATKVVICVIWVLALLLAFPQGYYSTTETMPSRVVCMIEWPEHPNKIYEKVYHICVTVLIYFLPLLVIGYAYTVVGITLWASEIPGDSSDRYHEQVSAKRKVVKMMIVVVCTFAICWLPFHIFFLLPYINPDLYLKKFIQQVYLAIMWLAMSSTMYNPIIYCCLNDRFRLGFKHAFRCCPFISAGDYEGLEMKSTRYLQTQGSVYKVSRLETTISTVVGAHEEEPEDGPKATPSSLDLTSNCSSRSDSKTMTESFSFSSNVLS
The next assay deals with T3, D(4) dopamine receptor (Homo sapiens, UniProt P21917).
T3 sequence (P21917 whole entry): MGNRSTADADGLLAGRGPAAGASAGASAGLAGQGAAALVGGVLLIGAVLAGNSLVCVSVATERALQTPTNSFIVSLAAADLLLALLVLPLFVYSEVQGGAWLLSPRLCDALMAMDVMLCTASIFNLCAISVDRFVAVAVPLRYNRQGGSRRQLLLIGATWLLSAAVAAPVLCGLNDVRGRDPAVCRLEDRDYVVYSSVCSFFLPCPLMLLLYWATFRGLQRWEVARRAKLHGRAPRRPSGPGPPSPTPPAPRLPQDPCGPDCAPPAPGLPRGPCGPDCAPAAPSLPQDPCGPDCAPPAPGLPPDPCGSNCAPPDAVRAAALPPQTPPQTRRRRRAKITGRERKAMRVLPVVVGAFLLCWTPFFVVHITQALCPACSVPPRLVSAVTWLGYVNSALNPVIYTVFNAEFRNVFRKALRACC

Assay [4] deals with T4, Peroxisome proliferator-activated receptor gamma (Homo sapiens, UniProt P37231).
T4 sequence (P37231 whole entry): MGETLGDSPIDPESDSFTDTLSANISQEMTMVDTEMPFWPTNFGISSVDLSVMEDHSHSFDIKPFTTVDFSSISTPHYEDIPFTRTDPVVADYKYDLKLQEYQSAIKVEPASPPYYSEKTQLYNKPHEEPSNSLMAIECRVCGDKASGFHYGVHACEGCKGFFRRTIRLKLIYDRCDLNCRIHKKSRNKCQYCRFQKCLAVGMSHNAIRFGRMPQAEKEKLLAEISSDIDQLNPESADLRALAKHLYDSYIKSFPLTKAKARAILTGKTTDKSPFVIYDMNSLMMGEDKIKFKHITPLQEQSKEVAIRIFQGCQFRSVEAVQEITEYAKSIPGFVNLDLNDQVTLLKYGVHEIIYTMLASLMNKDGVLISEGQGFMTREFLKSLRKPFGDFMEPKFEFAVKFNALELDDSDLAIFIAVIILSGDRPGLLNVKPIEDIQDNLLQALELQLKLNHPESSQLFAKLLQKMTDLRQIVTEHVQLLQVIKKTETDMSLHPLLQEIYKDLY
Type of assay: functional.

Assay [5] has as its target T4, Peroxisome proliferator-activated receptor gamma. Type of assay: functional. This is another data set of the same source.
Assay [6] deals with T5, Histamine H1 receptor (Homo sapiens, UniProt P35367). Type of assay: functional, cell-based.
T5 sequence (P35367 whole entry): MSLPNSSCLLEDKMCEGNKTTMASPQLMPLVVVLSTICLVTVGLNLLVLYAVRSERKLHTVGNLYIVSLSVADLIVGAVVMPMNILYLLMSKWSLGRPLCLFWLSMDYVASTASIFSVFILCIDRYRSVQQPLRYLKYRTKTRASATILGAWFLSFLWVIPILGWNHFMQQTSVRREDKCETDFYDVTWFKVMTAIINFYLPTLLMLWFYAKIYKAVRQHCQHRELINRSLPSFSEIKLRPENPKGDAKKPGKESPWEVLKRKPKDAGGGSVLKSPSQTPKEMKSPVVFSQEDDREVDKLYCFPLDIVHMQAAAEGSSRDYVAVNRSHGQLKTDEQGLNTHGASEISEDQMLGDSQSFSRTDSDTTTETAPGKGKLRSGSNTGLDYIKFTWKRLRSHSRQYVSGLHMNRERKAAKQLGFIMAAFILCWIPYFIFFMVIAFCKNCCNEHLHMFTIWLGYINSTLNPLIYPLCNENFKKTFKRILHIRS
The target in assay [7] is T5, Histamine H1 receptor. Type of assay: functional, cell-based. This is another data set of the same source.

The values that follow come from ChEMBL document CHEMBL5291721, “A preclinical secondary pharmacology resource illuminates target-adverse drug reaction associations of marketed drugs” (Nat Commun, 2023).

Where a SMILES comes first, the peptide text is derived from it. Some results are limits rather than exact numbers.
Further: assay procedure not described here.

In general, AC50 refers to the concentration at which the activity in the assay is half-maximal. A higher AC50 goes with weaker potency. As to `CC1=C(CC(=O)O)c2cc(F)ccc2/C1=C\c1ccc([S+](C)[O-])cc1` (centres undefined), in assay [1], the AC50 was above 30 µM.
Take `O=C(O)c1ccc2nc(-c3cc(Cl)cc(Cl)c3)oc2c1`: the AC50 (on Androgen receptor; in assay [2]) was above 30 µM in each case.
In the case of `O=C(O[C@H]1C[N+]2(CCCOc3ccccc3)CCC1CC2)C(O)(c1cccs1)c1cccs1` [ACLIDINIUM BROMIDE], the AC50 in [3] was above 10 µM; on Substance-P receptor, 0.497 µM; on D(4) dopamine receptor it was above 10 µM; in [1], above 30 µM.
In turn, `C[C@H](N)C(=O)N[C@@H](CCC(N)=O)C(=O)O` [ALANYL GLUTAMINE] (H-Ala-Gln-OH) had an AC50 at Androgen receptor above 30 µM.
Take `Cc1nnc2n1-c1ccc(Cl)cc1C(c1ccccc1)=NC2` [ALPRAZOLAM]: the AC50 on Substance-P receptor is above 10 µM; on D(4) dopamine receptor, above 10 µM; in [1] it was above 30 µM.
With `COc1ccc(-n2nc(C(N)=O)c3c2C(=O)N(c2ccc(N4CCCCC4=O)cc2)CC3)cc1` [APIXABAN], the AC50 at Androgen receptor is above 30 µM; in [4], above 30 µM; in assay [2] it was above 50 µM; in assay [5], above 30 µM.
As to `CCN(CC)CCCN(c1ccccc1)C1Cc2ccccc2C1` [APRINDINE], the AC50 at Histamine H1 receptor [6] was above 30 µM; in assay [4], above 30 µM; at Histamine H1 receptor [7], 8 µM; in [5], above 30 µM.
With `CC(NC(C)(C)C)C(=O)c1cccc(Cl)c1` (centres undefined) [BUPROPION], the AC50 at Substance-P receptor is above 10 µM; at D(4) dopamine receptor, above 10 µM; in [2], above 30 µM; in assay [1] it was above 30 µM.
On to `CC(=O)OCC1=C(C(=O)O)N2C(=O)[C@@H](NC(=O)Cc3cccs3)[C@H]2SC1` [CEPHALOTHIN], for which the AC50 in assay [4] and in assay [5] was above 30 µM throughout.
For the compound `CC1=C(C(=O)O)N2C(=O)[C@@H](NC(=O)[C@H](N)C3=CCC=CC3)[C@H]2SC1` [CEPHRADINE], the half-maximal activity concentration (AC50) in assay [4] and in assay [5] was above 30 µM each time.
Turning to `COc1ccc(C(Cl)=C(c2ccc(OC)cc2)c2ccc(OC)cc2)cc1` [CHLOROTRIANISENE], the half-maximal activity concentration (AC50) at Histamine H1 receptor [6] and on Histamine H1 receptor [7] was above 30 µM throughout.
On to `Oc1cc(O)c2c(c1)O[C@H](c1ccc(O)c(O)c1)[C@@H](O)C2` [CIANIDANOL], for which the AC50 in [3] is above 10 µM; on Histamine H1 receptor [6] it was above 30 µM; in assay [1], above 30 µM; at Histamine H1 receptor [7] it was above 30 µM.
As for `CCCO[C@H]1[C@@H]([C@@H](COCc2ccc(Cl)cc2)OCc2ccc(Cl)cc2)OC(OCC)[C@@H]1O` (some centres undefined) [CLOBENOSIDE], the concentration at half-maximal activity (AC50) on Androgen receptor is above 30 µM.
For the compound `O=C1CN=C(c2ccccc2Cl)c2cc([N+](=O)[O-])ccc2N1` [CLONAZEPAM], the AC50 was above 10 µM on Substance-P receptor, above 10 µM at D(4) dopamine receptor and above 30 µM in assay [1].
As to `C=C(c1ccccc1OCc1cccc(Cl)c1)n1ccnc1` [CROCONAZOLE], half-maximal activity in assay [3] (AC50) was put at 1.11 µM.
In the case of `CCCCCCOC(=O)NC(=N)c1ccc(NCc2nc3cc(C(=O)N(CCC(=O)OCC)c4ccccn4)ccc3n2C)cc1` [DABIGATRAN ETEXILATE], the AC50 in [4] was above 30 µM; in [2], 3 µM; in assay [5], above 30 µM.
Compound `CC(=O)Oc1cccc2c1C(=O)c1c(OC(C)=O)cc(C(=O)O)cc1C2=O` [DIACEREIN] registered a half-maximal activity concentration (AC50) on Androgen receptor above 10 µM.
The compound `CCN(CC)C(C)C(=O)c1ccccc1` (centres undefined) [DIETHYLPROPION] yielded a concentration at half-maximal activity (AC50) in [1] above 30 µM.
In the case of `Cc1cnc(Nc2ccc(OCCN3CCCC3)cc2)nc1Nc1cccc(S(=O)(=O)NC(C)(C)C)c1` [FEDRATINIB], the half-maximal activity concentration (AC50) stood at 3.12 µM in [3] and 7.7 µM in assay [2].
As for `CCOC(=O)C1=C(C)NC(C)=C(C(=O)OC)C1c1cccc(Cl)c1Cl` (centres undefined) [FELODIPINE], the values for the half-maximal activity concentration (AC50) (at Substance-P receptor; at D(4) dopamine receptor; in assay [1]) were above 10 µM, above 10 µM and above 30 µM, respectively.
On Androgen receptor, `CC(=O)OCC(=O)[C@@]1(O)CC[C@H]2[C@@H]3CCC4=CC(=O)CC[C@]4(C)[C@@]3(F)[C@@H](O)C[C@@]21C` [FLUDROCORTISONE ACETATE] had a concentration at half-maximal activity (AC50) above 30 µM.
`CN1C(=O)CN=C(c2ccccc2F)c2cc([N+](=O)[O-])ccc21` [FLUNITRAZEPAM]: the concentration at half-maximal activity (AC50) in assay [3] was above 10 µM; on Substance-P receptor, above 10 µM; on D(4) dopamine receptor, above 10 µM; in [1], above 30 µM.
Regarding `Cc1ccc(S(=O)(=O)NC(=O)N[C@H]2[C@H]3CC[C@@](C)([C@H]2O)C3(C)C)cc1` [GLIBORNURIDE], the AC50 at Androgen receptor is above 30 µM.
Consider `CN1C2CCCC1CC(NC(=O)c1nn(C)c3ccccc13)C2` (centres undefined) [GRANISETRON], for which the AC50 on Substance-P receptor is above 10 µM; on D(4) dopamine receptor it was above 10 µM; in assay [2] it was above 30 µM; in assay [1] it was above 30 µM.
Consider `COc1ccc2c3c1O[C@H]1C(=O)CC[C@H]4[C@@H](C2)N(C)CC[C@]314` [HYDROCODONE], for which the concentration at half-maximal activity (AC50) in [3] is above 10 µM; at Substance-P receptor, above 10 µM; on D(4) dopamine receptor, above 10 µM; in assay [2], above 50 µM; in assay [1] it was above 30 µM.
As for `CCN(CC)CC(=O)Nc1c(C)cccc1C` [LIDOCAINE], the results for the half-maximal activity concentration (AC50) (on Substance-P receptor; in assay [1]) were above 10 µM and above 30 µM, respectively.
`COC(=O)c1ccc2c(c1)NC(=O)/C2=C(\Nc1ccc(N(C)C(=O)CN2CCN(C)CC2)cc1)c1ccccc1` [NINTEDANIB]: the concentration at half-maximal activity (AC50) in [4] is 4.8 µM; in [2], 13 µM; in assay [5], above 30 µM.
As for `CC(C)(N)Cc1ccccc1` [PHENTERMINE], the AC50 in assay [3] was above 10 µM; in assay [1], above 30 µM.
Take `CS(=O)(=O)NC(=O)CCC/C=C\C[C@H]1C(=O)C[C@@H](O)[C@@H]1/C=C/[C@@H](O)COc1ccccc1` [SULPROSTONE]: the AC50 (on Histamine H1 receptor [6]; in assay [4]; on Histamine H1 receptor [7]; in [5]) was above 30 µM in each case.
At Androgen receptor, `CCCCOC(=O)C(=O)Nc1cccc(-c2nnn[nH]2)c1` [TAZANOLAST] came in with an AC50 above 30 µM.
On to `CCCCC[C@H](O)CC[C@@H]1[C@H]2Cc3cccc(OCC(=O)O)c3C[C@H]2C[C@H]1O` [TREPROSTINIL], for which the AC50 (at Androgen receptor; in assay [4]; in assay [5]) was above 30 µM each time.
Turning to `CN(C)CCOCC(=O)NC12CC3CC(CC(C3)C1)C2` [TROMANTADINE], the concentration at half-maximal activity (AC50) at Androgen receptor is above 30 µM.
